The experiment deals with Jurkat NF-kB reporter, TCR-induced, luciferase luminescence. As to the kind of experiment: T-cell NF-kB luciferase reporter inhibition – Jurkat cells, luminescence, dose response (AID 489035). On the technique in general: A reporter such as luciferase makes a cellular process visible.

Structures are written as SMILES. Calls of active or inactive are those of the source. How the calls were made is not given here. Where only a bound is given, the exact number is not on record here.

As for `O=[N+]([O-])c1nn(-c2ccc3c(c2)OCCO3)n(O)c1=Nc1ccccc1`, the IC50 is 1.05 µM.

As for `Cc1ccc(S(=O)(=O)Nc2ccccc2-c2ccccc2)cc1`, the IC50 is 22.6 µM (inactive).

`CC[C@@]1(O)C(=O)OCc2c1cc1n(c2=O)Cc2cc3c(N)cccc3nc2-1`: the IC50 is less than 0.16 µM.

Regarding `COc1ccc(C)cc1NS(=O)(=O)c1ccc(-c2cnc(C3CC3)o2)cc1`, the IC50 is > 80 µM (inactive).

Turning to `O=C(N[C@@H](Cc1ccccc1)C(=O)CCl)OCc1ccccc1`, the IC50 was 0.54 µM.

For `CCOC(=O)N1CCN(C(=O)C2CCCN(Cc3nc(-c4ccc(Cl)cc4)oc3C)C2)CC1` (stereo not given), the IC50 was > 80 µM (inactive).

`O=C(CSc1nnc(Cn2nnc3ccccc32)o1)N(Cc1ccc(F)cc1)c1ccccc1`: the IC50 was > 80 µM (inactive).

Consider `Cn1nc(C(C)(C)C)cc1C(=O)NCc1cc(F)cc2c1OCOC2`, for which the IC50 is > 80 µM (inactive).

In the case of `Cc1cc(C(C)(C)C)cc(C)c1C[n+]1ccc2ccccc2c1`, the IC50 was 58.9 µM (inactive).

With `CC(C)(C)c1ccc(C(=O)O/N=C(\N)c2ccccn2)cc1`, the IC50 was 9.45 µM.

As for `O=C(Nc1ccc(S(=O)(=O)N2CCCC2)cc1)c1ccc(CN2CCc3ccccc3C2)cc1`, the IC50 was > 80 µM (inactive).

With `COc1cc(C2C(C#N)=C(N)Oc3cc4c(cc32)OCO4)cc(OC)c1OC` (stereo not given), the IC50 was 34.1 µM (inactive).

Regarding `Cc1ccc(O)c(NC(=O)c2cc(-c3ccco3)on2)c1`, the IC50 is > 80 µM (inactive).

For the compound `Oc1ccc2ccccc2c1N=Nc1ccccn1`, the 50% inhibitory concentration (IC50) was 1.96 µM.

`O[C@@H]1[C@@H](O)C=C2CCN3Cc4cc5c(cc4[C@H]1C23)OCO5` (stereo not given in full): the IC50 is 0.84 µM.

As for `CCCSc1nnc(Sc2nnnn2-c2ccccc2)s1`, the half-maximal inhibitory concentration (IC50) is 2.09 µM.

With `COc1cc(C(=O)N/N=C/c2cc([N+](=O)[O-])cs2)cc(OC)c1OC`, the IC50 is > 80 µM (inactive).

For `O=S(=O)(c1ccc2c(c1)OCCO2)N1CCN(c2ncnc3sccc23)CC1`, the IC50 is > 80 µM (inactive).

In the case of `COc1ccc(N/N=C/c2c(C(=O)O)ccc3ccccc23)cc1`, the IC50 is 16.4 µM.

For `O=C(Nc1ccc(N2CCOCC2)cc1)c1ccc(Cl)c(S(=O)(=O)N2CCCCC2)c1`, the IC50 is > 80 µM (inactive).

Regarding `CCCCCCCCCCCCCCCC[n+]1cccc(C(=O)N(CC)CC)c1`, the IC50 is 3.02 µM.

In the case of `Cc1ccc(S(=O)(=O)Cc2ccc(C(=O)N3CCN(c4cccc(C)c4C)CC3)o2)cc1`, the 50% inhibitory concentration (IC50) was 15.8 µM.

For the compound `CCCC[C@@H](C)C[C@@H](C)C(=O)N(C)[C@@H](CC(C)C)C(=O)N[C@H](C(=O)N(C)[C@H](C(=O)N1C[C@@H](O)C[C@H]1C(=O)N1C(=O)C=C[C@@H]1C)C(C)C)C(C)OC(C)=O` (stereo not given in full), the IC50 is 4.87 µM.

As for `O=C(Nc1nc(-c2ccccn2)cs1)c1ccc(Cl)s1`, the IC50 is 2.64 µM.

Regarding `COc1ccc(C2=NOC(C(=O)NCc3ccc(F)cc3)C2)cc1OC` (stereo not given), the IC50 is > 80 µM (inactive).

Turning to `CC1(C)C[C@H]2C=C(C=O)[C@]3(C=O)C[C@]3(C)[C@H]2C1`, the IC50 is 9.17 µM.

On to `COc1cccc(N/C(N)=N/c2nc(CSc3ccccn3)cc(=O)[nH]2)c1`, for which the IC50 is 4.67 µM.

`O=S(=O)(c1cc(F)ccc1F)N1CCN(c2ncnc3ccccc23)CC1`: the IC50 was > 80 µM (inactive).

For `COc1ccc(S(=O)(=O)Nc2cccc(-c3ccc4nncn4n3)c2)cc1F`, the IC50 is > 80 µM (inactive).

For the compound `COc1cc(CC(=O)OCC(=O)c2ccc3c(c2)OCCO3)cc(OC)c1OC`, the IC50 is > 80 µM (inactive).

In the case of `CCOC(=O)c1[nH]c(C)c(C(=O)OCC(=O)NC(C)c2ccc(F)cc2)c1C` (stereo not given), the IC50 was > 80 µM (inactive).

`CCOCCOC(=O)c1[nH]c2c(c1C)C(=O)CC(c1cccs1)C2` (stereo not given): the IC50 was > 80 µM (inactive).

For the compound `O=C(Sc1cccc2cccnc12)c1ccc(F)cc1`, the IC50 was 0.99 µM.

As for `Cc1ccc2nc(C)c(CN3CCN(c4ccc([N+](=O)[O-])cc4Cl)CC3)n2c1`, the IC50 is 26.6 µM (inactive).

With `Cc1c(C)c2ccc(OCC(=O)Nc3ccccn3)c(C)c2oc1=O`, the IC50 was 0.39 µM.

Consider `O=C(Nc1nc(-c2ccccc2)cs1)c1ccc(N2CCOCC2)c([N+](=O)[O-])c1`, for which the IC50 is > 80 µM (inactive).

Regarding `Cc1nc(Sc2nnnn2C)c2c3c(sc2n1)CCC3`, the IC50 was 5.19 µM.

Turning to `Clc1ccc(CSc2nncn2-c2ccc3c(c2)OCCO3)cc1`, the IC50 is > 80 µM (inactive).

Consider `CCOc1ccc2c(c1)sc(N)[n+]2Cc1cc(C)cc2cccnc12`, for which the IC50 was 7.8 µM.

As to `CCc1ccc(/C=N/NC(=O)c2cc(C3CC3)nc3ccccc23)s1`, the IC50 was 20 µM (inactive).

In the case of `Cc1ccc(C(=O)N/N=C/c2ccc([N+](=O)[O-])s2)cc1`, the IC50 was 1.26 µM.

For the compound `O=[N+]([O-])c1ccc(O)c(/C=N/Nc2ccc(Cl)nn2)c1`, the IC50 is 54 µM (inactive).

As for `Cc1cc(C(=O)N2CC=C(c3ccccc3)CC2)c2ccccc2n1`, the IC50 was 75.7 µM (inactive).

As to `CCn1ncc(C2=NOC(C(=O)NCc3ccccc3)C2)c1C` (stereo not given), the IC50 is less than 0.16 µM.

Turning to `O=C(N=Nc1c(O)[nH]c2ccc(Br)cc12)c1ccccc1-n1cccc1`, the IC50 was 50.2 µM (inactive).

In the case of `Cc1ccc2nc(SCC(=O)Nc3cc(C(F)(F)F)ccc3N3CCOCC3)[nH]c2c1`, the IC50 is > 80 µM (inactive).

On to `Cc1cccc(N2CCN(C(=O)c3c(-c4ccccc4Cl)noc3C)CC2)c1C`, for which the IC50 is 78.6 µM (inactive).

On to `COc1ccc([N+](=O)[O-])cc1Nc1c2ccccc2nc2ccccc12`, for which the IC50 is 50.7 µM (inactive).

Turning to `CCN1C=CC(=C2C(=O)c3ccccc3C2=O)C=C1`, the IC50 was 1.03 µM.

Take `CC(Oc1ccc(Cl)cc1Cl)C(=O)Nc1ccncc1` (stereo not given): the IC50 is 61.3 µM (inactive).

Regarding `C[C@]12CC[C@H](O)C[C@H]1CC[C@@H]1[C@@H]2C[C@@H](O)[C@]2(C)[C@@H](C3=CC(=O)OC3)CC[C@]12O`, the IC50 is 65.7 µM (inactive).

On to `CCC(=O)NC(c1ccc(C)cc1)c1ccc2cccnc2c1O` (stereo not given), for which the IC50 was 11.6 µM.

Take `CC(C)(C)c1ccc(C(=O)Nc2ccc(Oc3cccnc3)nc2)cc1`: the IC50 was > 80 µM (inactive).

Turning to `COC(=O)C1=C(CN2CCCc3ccccc32)NC(=O)NC1c1ccc(F)cc1` (stereo not given), the IC50 is 1.01 µM.

As to `Cc1ccc(S(=O)(=O)NCc2ccncc2)cc1C`, the IC50 was > 80 µM (inactive).

Turning to `CCOC(=O)N/N=C/c1c(C)nn(-c2cccc(C(F)(F)F)c2)c1Cl`, the IC50 is > 80 µM (inactive).

`CN[C@H]1CCc2cc(OC)c(OC)c(OC)c2-c2ccc(OC)c(=O)cc21`: the IC50 is > 80 µM (inactive).

Turning to `COc1cccc2sc(Nc3nnc(-c4ccccc4Cl)o3)nc12`, the IC50 is > 80 µM (inactive).

For `COC(=O)C1CN(C#N)N(c2ccc(Cl)cc2)C12c1ccccc1-c1ccccc12` (stereo not given), the IC50 was 0.9 µM.

For `Cc1ccc2c(c1)C=CC(C#N)N2C(=O)c1ccccc1` (stereo not given), the IC50 was > 80 µM (inactive).

With `CC(C)Nc1ccc(C(CC(N)=O)NC(=O)Cc2ccc(Br)cc2)cc1[N+](=O)[O-]` (stereo not given), the IC50 was 1.71 µM.

Take `Cc1cccc(N2CCN(C(=O)c3c(-c4ccccc4)noc3C)CC2)c1C`: the IC50 is > 80 µM (inactive).

As to `O=C(Sc1cccc2cccnc12)c1ccccc1Br`, the IC50 is 3.21 µM.

As to `COc1cc(NS(=O)(=O)c2ccc(C)cc2)c2ncccc2c1`, the IC50 is 2.12 µM.

For the compound `CC1CCCN(c2ncnc3c2cnn3-c2ccc(Cl)cc2)C1` (stereo not given), the IC50 is 10.5 µM.

Consider `CC(=O)c1ccc(N2CCN(S(=O)(=O)c3ccc4c(c3)CC(C)N4C(=O)C3CC3)CC2)cc1` (stereo not given), for which the IC50 was > 80 µM (inactive).

As to `COc1ccccc1NC(=O)C1=C(C)Nc2nc3ccccc3n2C1c1cccs1` (stereo not given), the IC50 is 52.3 µM (inactive).

On to `O=C(N/N=C\c1c(O)ccc2ccccc12)c1cncc(Br)c1`, for which the IC50 was 4.01 µM.

Take `COc1ccc(Nc2cc(C)nc(-n3nc(C)cc3C)n2)cc1`: the IC50 is > 80 µM (inactive).

Consider `COC(=O)c1[nH]c2c(c1C)C(=O)CC(c1cccs1)C2` (stereo not given), for which the IC50 is > 80 µM (inactive).

For `COc1ccccc1N1CCN(C(=O)c2ccc(-c3ccc(Cl)cc3)o2)CC1`, the IC50 is 34.6 µM (inactive).

For the compound `CCOC(=O)CSC1=C(C#N)C(c2ccc(C)s2)CC(=O)N1` (stereo not given), the IC50 was > 80 µM (inactive).

As for `COC(=O)c1ccccc1NC(=O)Cn1c(-c2nonc2N)nc2ccccc21`, the IC50 was 43.6 µM (inactive).

In the case of `Cc1ccnc2c1ccc1c(C)ccnc12`, the half-inhibitory concentration (IC50) was 2.42 µM.

Turning to `CCN(CC)c1ccc(/C=N/NC(=O)c2nnn(-c3nonc3N)c2C(C)C)c(O)c1`, the IC50 is 2.02 µM.

Regarding `COc1ccc(C[C@H](N)C(=O)N[C@H]2[C@@H](O)[C@H](n3cnc4c(N(C)C)ncnc43)O[C@@H]2CO)cc1`, the IC50 was 0.96 µM.

Consider `CCOC(=O)N=Nc1c2ccccc2c2nc3no[nH]c3nc12`, for which the IC50 was 0.73 µM.

On to `COc1cc(NC(=O)N2CCNC2=O)cc(C(=O)Nc2cccc(C(F)(F)F)c2)c1`, for which the IC50 was > 80 µM (inactive).

`O=C(Nc1ccc(S(=O)(=O)N2CCCCC2)cc1)c1ccc(CN2CCOCC2)cc1`: the half-inhibitory concentration (IC50) was 16.6 µM.

Regarding `O=C1CC(c2cccc(Br)c2)c2cc3c(cc2N1)CCC3` (stereo not given), the IC50 was 63.9 µM (inactive).

For `Cc1cc2c(cc1C)C(c1ccccc1OC(C)C)CC(=O)N2` (stereo not given), the IC50 was 7.61 µM.

Turning to `C=CCn1c(SCc2c(C)noc2C)nc2ccccc2c1=O`, the IC50 was 23 µM (inactive).

With `CCCCCCCCC[n+]1cccc2c3ccccc3ccc21`, the IC50 is 8.65 µM.

Regarding `Cc1noc(C)c1COc1ccc(C(=O)NNC(=O)c2ccccc2F)cc1`, the IC50 was > 80 µM (inactive).

As for `O=C(N/N=C/c1ccccc1Cl)c1[nH]c2ccc(Br)cc2c1-c1ccccc1`, the IC50 is 6.27 µM.

As for `CCOC(=O)c1ccc(Nc2nc(N)c3cc(OC)c(OC)cc3n2)cc1`, the IC50 is > 80 µM (inactive).

As to `O=C(Nc1ccc(N2CCCCC2)cc1)c1ccccn1`, the IC50 was 0.46 µM.

Consider `O=C(N/N=C(\c1ccccc1)c1cccnc1)c1cccc(F)c1`, for which the half-inhibitory concentration (IC50) is 5.3 µM.

Consider `COc1ccc(C2=NOC(C(=O)NCc3cccs3)C2)cc1OC` (stereo not given), for which the IC50 was > 80 µM (inactive).

Turning to `CCCC(=O)NC(c1ccc(C(C)C)cc1)c1ccc2cccnc2c1O` (stereo not given), the IC50 was 4.15 µM.

One may read the IC50 as the concentration at which inhibition is half-maximal.

Values taken from PubChem BioAssay AID489035 (Sanford-Burnham Center for Chemical Genomics, 2010).
